Experimental findings from patent US12102690B2, “Preparation method and application of biomimetic nano-protectant for detoxifying dox-induced cardiac and systemic toxicity” (priority 2021, dated 2024) are described below.

The subject of data set [1] is TC1 cells subcutaneous transplanted tumor model of cervical cancer. Description: Tumor inhibition in subcutaneous transplanted tumor model of cervical cancer. Format: in vivo. The settings on record: Day24, TC1 tumor-bearing B6 rats. Here is the method:
(§1) When the tumor volume reached 70-80 mm^3, the NPs+DOX group, the DOX group alone and the NC group were performed respectively; and then changes in size of tumor tissues and the changes in weight of B6 rats were observed and measured from Day0 to Day24. […] However, the volume of tumor tissues in the NC group increases to about 200 times of the initial volume on Day24 (FIG. 20A). […] Meanwhile, due to the rapid growth of tumor tissues in the NC group, the weight of NC group is increased greatly (FIG. 20B).

Data set [2] is described as follows: Change in weight of tumor-bearing B6 rats. Format: in vivo. Particulars: Day0 to Day24, TC1 tumor-bearing B6 rats. The protocol: as §1
A further data set has as its system H9C2 myocardial cells. As to the kind of experiment: Survival rate of myocardial cells with CCK-8 reagent after IC50 dose of DOX. Particulars: DOX group alone, 24 h. Format: cell-based, rat. Here is the method: Different doses of biomimetic nano-protectant DNA&Pro@RBCM-PCM/KALA were added into H9C2 myocardial cells for incubation for 4 h; then, IC50 (50% Inhibitory Concentration) dose of DOX was added; the survival rate of H9C2 myocardial cells was detected with a CCK-8 reagent after 24 h; and a DOX group alone (with a DNA concentration of 0) and a treatment-free NC group (Negative Control) were set as experimental control groups. […] To further describe the protection mechanism of the biomimetic nano-protectant PCM/KALA-RBCM@DNA&Pro, in the invention, a dose of the biomimetic nano-protectant PCM/KALA-RBCM@DNA&Pr (NPs) is determined for protecting the damage of the IC50 dose of DOX to the H9C2 myocardial cells, while three important apoptosis pathway signal molecules (including Bax, Bcl2 and Caspase-3) are selected for Western Blot (WB) test (see FIG. 12).
Background: Formazan colour is commonly taken as a measure of viable cells.

In the case of `COc1cccc2c1C(=O)c1c(O)c3c(c(O)c1C2=O)C[C@@](O)(C(=O)CO)C[C@@H]3O[C@H]1C[C@H](N)[C@H](O)[C@H](C)O1` [DOX, doxorubicin], the “tumor volume at the end of Day24 relative to the initial volume” value in data set [1] is reported as “about 15 times of the initial volume”. Besides, the “change in weight of B6 rats” value in data set [2] is “sudden loss of weight”. Besides, the “survival rate of H9C2 cells” value in the data set on H9C2 myocardial cells is listed as “about 50%”.
